Experimental data reported in publication PMC7206119, “RIP1 inhibition blocks inflammatory diseases but not tumor growth or metastases” (Cell Death and Differentiation, 2019).

Columns and labels:
Assay in all cases: biochemical
Set-up in all cases: DiscoverX kinase panel, active-site competition binding (KINOMEscan type), percent of control at one concentration
Settings in all cases: competition binding, percent of control
RIPK5 = biological target: T1, RIPK5 (Homo sapiens, UniProt Q6XUX3)
T1 construct: gene DSTYK

TNIK = TNIK (Homo sapiens, UniProt Q9UKE5)
AAK1 = AAK1 (Homo sapiens, UniProt Q2M2I8)
TLK2 = TLK2 (Homo sapiens, UniProt Q86UE8)
VRK2 = VRK2 (Homo sapiens, UniProt Q86Y07)
AMPK-alpha2 = biological target: T2, AMPK-alpha2 (Homo sapiens, UniProt P54646)
T2 construct: gene PRKAA2

CSNK2A2 = CSNK2A2 (Homo sapiens, UniProt P19784)
DAPK3 = DAPK3 (Homo sapiens, UniProt O43293)
IKK-alpha = biological target: T3, IKK-alpha (Homo sapiens, UniProt O15111)
T3 construct: gene CHUK

CAMK2G = CAMK2G (Homo sapiens, UniProt Q13555)
IRAK4 = IRAK4 (Homo sapiens, UniProt Q9NWZ3)
EGFR(L858R) = EGFR(L858R) (Homo sapiens, UniProt P00533, L858R)
PIK3CA(E542K) = PIK3CA(E542K) (Homo sapiens, UniProt P42336, E542K)
CSNK1A1 = CSNK1A1 (Homo sapiens, UniProt P48729)
EPHB4 = EPHB4 (Homo sapiens, UniProt P54760)
CHEK2 = CHEK2 (Homo sapiens, UniProt O96017)
SIK = biological target: T4, SIK (Homo sapiens, UniProt P57059)
T4 construct: gene SIK1

TRKB = biological target: T5, TRKB (Homo sapiens, UniProt Q16620)
T5 construct: gene NTRK2

EGFR(L858R,T790M) = EGFR(L858R,T790M) (Homo sapiens, UniProt P00533, L858R/T790M)
MRCKB = biological target: T6, MRCKB (Homo sapiens, UniProt Q9Y5S2)
T6 construct: gene CDC42BPB

BRK = biological target: T7, BRK (Homo sapiens, UniProt Q13882)
T7 construct: gene PTK6
T7 sequence (Q13882 whole entry): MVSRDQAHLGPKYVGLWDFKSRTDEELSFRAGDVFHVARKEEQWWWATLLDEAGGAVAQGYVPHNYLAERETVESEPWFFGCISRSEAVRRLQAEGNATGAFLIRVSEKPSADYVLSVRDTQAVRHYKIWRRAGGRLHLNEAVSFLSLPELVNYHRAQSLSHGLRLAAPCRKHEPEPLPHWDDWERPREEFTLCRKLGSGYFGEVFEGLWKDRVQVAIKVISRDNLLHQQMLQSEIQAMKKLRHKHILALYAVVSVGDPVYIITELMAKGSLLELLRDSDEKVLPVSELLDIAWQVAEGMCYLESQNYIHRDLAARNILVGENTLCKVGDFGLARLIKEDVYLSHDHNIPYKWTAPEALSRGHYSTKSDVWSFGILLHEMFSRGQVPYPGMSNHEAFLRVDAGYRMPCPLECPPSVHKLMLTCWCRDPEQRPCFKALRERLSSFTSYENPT

T5 sequence (Q16620 whole entry): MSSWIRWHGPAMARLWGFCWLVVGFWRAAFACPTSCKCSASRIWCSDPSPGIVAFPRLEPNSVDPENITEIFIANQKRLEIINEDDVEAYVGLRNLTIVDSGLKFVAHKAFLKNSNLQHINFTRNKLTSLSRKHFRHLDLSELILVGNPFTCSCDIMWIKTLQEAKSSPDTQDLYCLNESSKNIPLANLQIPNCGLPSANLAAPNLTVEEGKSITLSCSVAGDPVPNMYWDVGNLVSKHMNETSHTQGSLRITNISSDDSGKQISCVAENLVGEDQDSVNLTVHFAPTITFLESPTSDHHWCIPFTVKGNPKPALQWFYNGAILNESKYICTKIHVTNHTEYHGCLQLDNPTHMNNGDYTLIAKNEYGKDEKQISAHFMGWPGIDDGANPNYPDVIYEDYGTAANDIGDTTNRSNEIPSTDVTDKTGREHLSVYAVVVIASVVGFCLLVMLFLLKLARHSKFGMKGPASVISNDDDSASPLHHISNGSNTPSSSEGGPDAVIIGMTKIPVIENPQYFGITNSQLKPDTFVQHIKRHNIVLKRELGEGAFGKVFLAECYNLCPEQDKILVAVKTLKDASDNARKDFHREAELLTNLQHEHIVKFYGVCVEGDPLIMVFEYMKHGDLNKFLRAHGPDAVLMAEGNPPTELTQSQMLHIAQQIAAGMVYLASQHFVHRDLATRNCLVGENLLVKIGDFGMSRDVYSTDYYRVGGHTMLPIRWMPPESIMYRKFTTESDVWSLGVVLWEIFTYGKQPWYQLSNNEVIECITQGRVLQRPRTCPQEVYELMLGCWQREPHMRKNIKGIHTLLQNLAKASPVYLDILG
Sequence of EGFR(L858R) (P00533 whole entry L858R): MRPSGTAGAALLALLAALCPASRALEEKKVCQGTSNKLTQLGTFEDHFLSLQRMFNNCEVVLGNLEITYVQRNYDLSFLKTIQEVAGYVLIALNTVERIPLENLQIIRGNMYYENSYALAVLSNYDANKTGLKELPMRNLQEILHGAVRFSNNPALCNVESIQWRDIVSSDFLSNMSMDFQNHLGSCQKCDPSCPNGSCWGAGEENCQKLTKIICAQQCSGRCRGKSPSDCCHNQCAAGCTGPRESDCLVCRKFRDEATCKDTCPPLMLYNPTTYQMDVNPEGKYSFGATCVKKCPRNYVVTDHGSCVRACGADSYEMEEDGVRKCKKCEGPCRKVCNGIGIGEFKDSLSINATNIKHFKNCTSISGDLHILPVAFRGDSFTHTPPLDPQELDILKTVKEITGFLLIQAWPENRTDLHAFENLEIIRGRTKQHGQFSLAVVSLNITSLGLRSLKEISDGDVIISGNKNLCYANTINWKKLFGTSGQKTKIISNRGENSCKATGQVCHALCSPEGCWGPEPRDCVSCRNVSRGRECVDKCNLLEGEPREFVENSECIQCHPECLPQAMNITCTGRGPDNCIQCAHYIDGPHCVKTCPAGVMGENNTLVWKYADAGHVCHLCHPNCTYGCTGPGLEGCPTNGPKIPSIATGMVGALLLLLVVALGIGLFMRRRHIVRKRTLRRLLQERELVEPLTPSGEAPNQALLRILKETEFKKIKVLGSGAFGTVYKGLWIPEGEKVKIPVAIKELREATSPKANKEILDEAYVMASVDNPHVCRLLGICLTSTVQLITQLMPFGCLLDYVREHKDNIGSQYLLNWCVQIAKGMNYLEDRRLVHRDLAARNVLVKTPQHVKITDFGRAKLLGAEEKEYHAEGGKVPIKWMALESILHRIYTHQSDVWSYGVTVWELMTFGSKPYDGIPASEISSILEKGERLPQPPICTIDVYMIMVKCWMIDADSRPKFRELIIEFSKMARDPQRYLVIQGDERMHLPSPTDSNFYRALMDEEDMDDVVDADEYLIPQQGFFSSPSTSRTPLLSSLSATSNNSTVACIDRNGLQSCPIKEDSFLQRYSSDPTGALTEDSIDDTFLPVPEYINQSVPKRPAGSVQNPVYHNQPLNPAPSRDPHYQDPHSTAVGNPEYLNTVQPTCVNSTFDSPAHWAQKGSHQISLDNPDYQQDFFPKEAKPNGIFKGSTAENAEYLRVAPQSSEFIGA
Sequence of IRAK4 (Q9NWZ3 whole entry): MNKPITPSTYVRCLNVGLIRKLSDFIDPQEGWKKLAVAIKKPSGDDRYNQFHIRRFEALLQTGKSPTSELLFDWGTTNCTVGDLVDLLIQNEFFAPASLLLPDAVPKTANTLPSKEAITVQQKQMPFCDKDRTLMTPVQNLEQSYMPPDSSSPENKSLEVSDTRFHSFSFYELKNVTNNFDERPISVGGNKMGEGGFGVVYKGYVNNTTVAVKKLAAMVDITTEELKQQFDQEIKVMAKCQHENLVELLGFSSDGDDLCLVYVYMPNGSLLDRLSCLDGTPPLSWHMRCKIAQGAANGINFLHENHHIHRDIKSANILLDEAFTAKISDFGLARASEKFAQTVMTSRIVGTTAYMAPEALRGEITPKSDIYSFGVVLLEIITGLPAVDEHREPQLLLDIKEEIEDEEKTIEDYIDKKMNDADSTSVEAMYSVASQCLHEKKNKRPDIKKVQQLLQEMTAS
Sequence of CHEK2 (O96017 whole entry): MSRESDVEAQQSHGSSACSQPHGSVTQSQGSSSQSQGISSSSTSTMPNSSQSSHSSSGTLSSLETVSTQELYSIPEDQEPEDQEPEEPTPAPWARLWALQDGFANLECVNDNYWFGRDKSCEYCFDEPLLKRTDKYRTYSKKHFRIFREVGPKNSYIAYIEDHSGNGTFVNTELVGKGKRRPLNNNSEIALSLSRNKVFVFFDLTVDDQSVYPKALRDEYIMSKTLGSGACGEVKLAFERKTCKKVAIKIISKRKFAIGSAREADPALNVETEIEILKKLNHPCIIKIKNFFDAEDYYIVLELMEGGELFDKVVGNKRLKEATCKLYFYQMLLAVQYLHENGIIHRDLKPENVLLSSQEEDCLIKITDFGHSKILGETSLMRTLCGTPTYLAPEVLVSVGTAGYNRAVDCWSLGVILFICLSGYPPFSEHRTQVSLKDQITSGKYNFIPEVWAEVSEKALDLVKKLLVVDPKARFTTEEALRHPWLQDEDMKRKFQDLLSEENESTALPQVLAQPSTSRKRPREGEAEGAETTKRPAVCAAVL
Sequence of TNIK (Q9UKE5 whole entry): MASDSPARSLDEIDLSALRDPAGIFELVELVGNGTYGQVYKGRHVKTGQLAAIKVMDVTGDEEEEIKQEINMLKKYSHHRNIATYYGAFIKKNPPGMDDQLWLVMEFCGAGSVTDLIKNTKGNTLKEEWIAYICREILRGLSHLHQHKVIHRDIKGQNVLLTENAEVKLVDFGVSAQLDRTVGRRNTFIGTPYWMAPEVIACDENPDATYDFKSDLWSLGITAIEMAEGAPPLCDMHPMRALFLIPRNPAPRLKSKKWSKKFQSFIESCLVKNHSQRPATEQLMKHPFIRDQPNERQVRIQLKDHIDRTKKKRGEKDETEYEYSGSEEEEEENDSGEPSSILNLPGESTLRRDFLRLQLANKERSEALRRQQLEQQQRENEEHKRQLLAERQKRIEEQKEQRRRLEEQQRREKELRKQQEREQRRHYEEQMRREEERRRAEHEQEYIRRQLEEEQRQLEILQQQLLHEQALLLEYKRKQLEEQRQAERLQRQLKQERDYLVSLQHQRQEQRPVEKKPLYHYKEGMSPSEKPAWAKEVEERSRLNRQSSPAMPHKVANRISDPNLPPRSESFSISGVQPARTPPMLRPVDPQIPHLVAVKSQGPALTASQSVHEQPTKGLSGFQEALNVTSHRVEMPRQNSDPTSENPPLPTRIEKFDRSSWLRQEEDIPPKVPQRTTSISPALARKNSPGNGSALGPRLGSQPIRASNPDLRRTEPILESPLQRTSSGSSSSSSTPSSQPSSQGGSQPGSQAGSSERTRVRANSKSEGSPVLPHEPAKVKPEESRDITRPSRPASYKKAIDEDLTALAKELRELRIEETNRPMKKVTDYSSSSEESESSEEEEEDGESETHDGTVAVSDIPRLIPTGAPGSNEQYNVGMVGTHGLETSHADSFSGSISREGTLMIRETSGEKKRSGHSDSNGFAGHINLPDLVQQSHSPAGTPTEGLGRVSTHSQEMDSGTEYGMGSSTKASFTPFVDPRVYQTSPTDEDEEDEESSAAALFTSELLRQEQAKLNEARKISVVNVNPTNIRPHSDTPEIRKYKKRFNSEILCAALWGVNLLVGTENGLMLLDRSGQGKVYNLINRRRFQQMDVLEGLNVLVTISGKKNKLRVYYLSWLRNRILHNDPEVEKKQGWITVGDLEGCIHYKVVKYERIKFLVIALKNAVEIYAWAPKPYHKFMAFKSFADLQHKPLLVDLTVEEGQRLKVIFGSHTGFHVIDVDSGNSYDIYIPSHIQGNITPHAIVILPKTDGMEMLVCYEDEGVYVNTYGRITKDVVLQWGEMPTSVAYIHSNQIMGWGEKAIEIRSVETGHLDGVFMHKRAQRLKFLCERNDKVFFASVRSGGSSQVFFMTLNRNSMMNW

COc1cc2c(cn1)N(C)C(=O)[C@@H](NC(=O)c1nc3n(n1)[C@H](c1ccccc1)CC3)CC2 [GNE684, (S)-N-((S)-7-methoxy-1-methyl-2-oxo-2,3,4,5-tetrahydro-1H-pyrido[3,4-b]azepin-3-yl)-5-phenyl-6,7-dihydro-5H-pyrrolo[1,2-b][1,2,4]triazole-2-carboxamide]
remaining binding at 10 µM (RIPK5): 48%
remaining binding at 10 µM (TNIK): 67%
remaining binding at 10 µM (AAK1): 100%
remaining binding at 10 µM (TLK2): 100%
remaining binding at 10 µM (VRK2): 85%
remaining binding at 10 µM (AMPK-alpha2): 81%
remaining binding at 10 µM (CSNK2A2): 85%
remaining binding at 10 µM (DAPK3): 76%
remaining binding at 10 µM (IKK-alpha): 100%
remaining binding at 10 µM (CAMK2G): 100%
remaining binding at 10 µM (IRAK4): 100%
remaining binding at 10 µM (EGFR(L858R)): 100%
remaining binding at 10 µM (PIK3CA(E542K)): 41%
remaining binding at 10 µM (CSNK1A1): 87%
remaining binding at 10 µM (EPHB4): 100%
remaining binding at 10 µM (CHEK2): 100%
remaining binding at 10 µM (SIK): 100%
remaining binding at 10 µM (TRKB): 83%
remaining binding at 10 µM (EGFR(L858R,T790M)): 100%
remaining binding at 10 µM (MRCKB): 100%
remaining binding at 10 µM (BRK): 100%
